Laboratory results reported in patent publication US3998818A, “Trifluoroethylmercapto, -sulfinyl or -sulfonyl acetamidocephalosporins” (SmithKline Corporation, priority 1975, dated 1976).
≈ marks a conversion by molar mass, not a printed value.

How the values were obtained:
Assay type in all cases: cell-based
[1] = test system: Kleb. pneumo. SK 4200; experiment: MIC by standard agar inclusion method (Kleb. pneumo. SK 4200)
[2] = test system: Strep. faecalis HH 34358; experiment: MIC by standard agar inclusion method (Strep. faecalis HH 34358); conditions: Enterococcus faecalis, HH34358
[3] = test system: E. coli SK 12140; experiment: MIC by standard agar inclusion method (E. coli SK 12140); conditions: Escherichia coli, SK12140
[4] = test system: Serratia marc. ATCC 13880; experiment: MIC by standard agar inclusion method (Serratia marc. ATCC 13880); conditions: ATCC13880
[5] = test system: S. aureus HH 127; experiment: MIC by standard agar inclusion method (S. aureus HH 127); conditions: Staphylococcus aureus, HH127
[6] = test system: Kleb. pneumo. SK 1200; experiment: MIC by standard agar inclusion method (Kleb. pneumo. SK 1200)
[7] = test system: S. aureus SK 23390; experiment: MIC by standard agar inclusion method (S. aureus SK 23390); conditions: Staphylococcus aureus, SK23390
[8] = test system: Entero. aerogenes ATCC 13048; experiment: MIC by standard agar inclusion method (Entero. aerogenes ATCC 13048); conditions: Klebsiella aerogenes, ATCC13048
[9] = test system: S. aureus Villaluz; experiment: MIC by standard agar inclusion method (S. aureus Villaluz); conditions: Staphylococcus aureus
[10] = test system: Pseudo. aeruginosa HH63; experiment: MIC by standard agar inclusion method (Pseudo. aeruginosa HH63); conditions: Pseudomonas aeruginosa
[11] = test system: Shigella paradysentiae; experiment: MIC by standard agar inclusion method (Shigella paradysentiae)
[12] = test system: Salmonella ATCC 12176; experiment: MIC by standard agar inclusion method (Salmonella ATCC 12176); conditions: ATCC12176
[13] = test system: E. coli HH 33779; experiment: MIC by standard agar inclusion method (E. coli HH 33779); conditions: Escherichia coli, HH33779

Which MIC [1] does the source give for CC(=O)OCC1=C(C(=O)O)N2C(=O)C(NC(=O)CSCC(F)(F)F)C2SC1 (centres unmarked) [Compound 1, 7-Trifluoroethylmercaptoacetamidocephalosporanic acid] here?
The MIC was 6.3 µg/mL (≈ 14.7 µM).

What about the MIC [2] of the same compound?
Its MIC is 25 µg/mL (≈ 58.4 µM).

And the MIC [3]?
The MIC was 6.3 µg/mL (≈ 14.7 µM).

What about the MIC [4] of the same compound?
Its MIC is over 200 µg/mL.

What about the MIC [5] of the same compound?
Its MIC is 0.4 µg/mL (≈ 0.934 µM).

What about the MIC [6] of the same compound?
Its MIC is 3.1 µg/mL (≈ 7.24 µM).

What about the MIC [7] of the same compound?
The MIC was 0.4 µg/mL (≈ 0.934 µM).

And the MIC [8]?
Its MIC is 50 µg/mL (≈ 117 µM).

What about the MIC [9] of the same compound?
The MIC was 25 µg/mL (≈ 58.4 µM).

And the MIC [10]?
Its MIC is over 200 µg/mL.

And the MIC [11]?
The MIC was 6.3 µg/mL (≈ 14.7 µM).

What about the MIC [12] of the same compound?
Its MIC is 6.3 µg/mL (≈ 14.7 µM).

And the MIC [13]?
The MIC was 50 µg/mL (≈ 117 µM).

How did the MIC [1] turn out when Cn1nnnc1SCC1=C(C(=O)O)N2C(=O)C(NC(=O)CSCC(F)(F)F)[C@H]2SC1 (some centres unmarked) [Compound 3, 7-Trifluoroethylmercaptoacetamido-3-(1-methyltetrazol-5-ylthiomethyl)-3-cephem-4-carboxylic acid] was run?
The MIC was 3.1 µg/mL (≈ 6.4 µM).

And the MIC [2]?
Its MIC is 12.5 µg/mL (≈ 25.8 µM).

What about the MIC [3] of the same compound?
The MIC was 1.6 µg/mL (≈ 3.3 µM).

And the MIC [4]?
The MIC was over 200 µg/mL.

What about the MIC [5] of the same compound?
The MIC was 0.2 µg/mL (≈ 0.413 µM).

And the MIC [6]?
The MIC was 1.6 µg/mL (≈ 3.3 µM).

And the MIC [7]?
Its MIC is 0.1 µg/mL (≈ 0.206 µM).

And the MIC [8]?
The MIC was 6.3 µg/mL (≈ 13 µM).

What about the MIC [9] of the same compound?
Its MIC is 12.5 µg/mL (≈ 25.8 µM).

And the MIC [10]?
Its MIC is over 200 µg/mL.

And the MIC [11]?
Its MIC is 0.4 µg/mL (≈ 0.826 µM).

And the MIC [12]?
Its MIC is 0.8 µg/mL (≈ 1.65 µM).

And the MIC [13]?
Its MIC is 6.3 µg/mL (≈ 13 µM).

Which results are given for Cc1nnc(SCC2=C(C(=O)O)N3C(=O)C(NC(=O)CSCC(F)(F)F)[C@H]3SC2)s1 (some centres unmarked) [Compound 2, 7-Trifluoroethylmercaptoacetamido-3-(5-methyl-1,3,4-thiadiazol-2-ylthiomethyl)-3-cephem-4-carboxylic acid]?
MIC [1]: 6.3 µg/mL (≈ 12.6 µM); MIC [2]: 6.3 µg/mL (≈ 12.6 µM); MIC [3]: 6.3 µg/mL (≈ 12.6 µM); MIC [4]: > 200 µg/mL; MIC [5]: 0.2 µg/mL (≈ 0.4 µM); MIC [6]: 3.1 µg/mL (≈ 6.19 µM); MIC [7]: 0.1 µg/mL (≈ 0.2 µM); MIC [8]: 25 µg/mL (≈ 49.9 µM); MIC [9]: 25 µg/mL (≈ 49.9 µM); MIC [10]: > 200 µg/mL; MIC [11]: 1.6 µg/mL (≈ 3.2 µM); MIC [12]: 6.3 µg/mL (≈ 12.6 µM); MIC [13]: 12.5 µg/mL (≈ 25 µM)

What does the source list for Cn1nnnc1SCC1=C(C(=O)O)N2C(=O)C(NC(=O)CS(=O)(=O)CC(F)(F)F)[C@H]2SC1 (some centres unmarked) [Compound 5, 7-Trifluoroethylsulfonylacetamido-3-(1-methyltetrazol-5-ylthiomethyl)-3-cephem-4-carboxylic acid]?
MIC [1]: 3.1 µg/mL (≈ 6 µM); MIC [2]: > 200 µg/mL; MIC [3]: 6.3 µg/mL (≈ 12.2 µM); MIC [4]: > 200 µg/mL; MIC [5]: 3.1 µg/mL (≈ 6 µM); MIC [6]: 3.1 µg/mL (≈ 6 µM); MIC [7]: 3.1 µg/mL (≈ 6 µM); MIC [8]: 50 µg/mL (≈ 96.8 µM); MIC [9]: 200 µg/mL (≈ 387 µM); MIC [10]: > 200 µg/mL; MIC [11]: 6.3 µg/mL (≈ 12.2 µM); MIC [12]: 6.3 µg/mL (≈ 12.2 µM); MIC [13]: 12.5 µg/mL (≈ 24.2 µM)

For Cn1nnnc1SCC1=C(C(=O)O)N2C(=O)C(NC(=O)C[S+]([O-])CC(F)(F)F)[C@H]2SC1 (some centres unmarked) [Compound 4, 7-Trifluoroethylsulfinylacetamido-3-(1-methyltetrazol-5-ylthiomethyl)-3-cephem-4-carboxylic acid], which MIC [1] is on record?
The MIC was 0.8 µg/mL (≈ 1.6 µM).

And the MIC [2]?
Its MIC is 100 µg/mL (≈ 200 µM).

What about the MIC [3] of the same compound?
Its MIC is 0.8 µg/mL (≈ 1.6 µM).

And the MIC [4]?
Its MIC is over 200 µg/mL.

What about the MIC [5] of the same compound?
The MIC was 1.6 µg/mL (≈ 3.2 µM).

And the MIC [6]?
Its MIC is 0.4 µg/mL (≈ 0.799 µM).

And the MIC [7]?
The MIC was 0.8 µg/mL (≈ 1.6 µM).

What about the MIC [8] of the same compound?
The MIC was 6.3 µg/mL (≈ 12.6 µM).

What about the MIC [9] of the same compound?
Its MIC is 100 µg/mL (≈ 200 µM).

What about the MIC [10] of the same compound?
The MIC was over 200 µg/mL.

And the MIC [11]?
Its MIC is 0.4 µg/mL (≈ 0.799 µM).

What about the MIC [12] of the same compound?
Its MIC is 1.6 µg/mL (≈ 3.2 µM).

And the MIC [13]?
The MIC was 3.1 µg/mL (≈ 6.19 µM).
